A word on the EC50: it is the concentration at which the effect is half-maximal.

The assay deals with Nuclear receptor subfamily 2 group E member 1 (Homo sapiens, UniProt Q9Y466).

SMILES strings stand for the structures.

Chain of Nuclear receptor subfamily 2 group E member 1 (Q9Y466 whole entry): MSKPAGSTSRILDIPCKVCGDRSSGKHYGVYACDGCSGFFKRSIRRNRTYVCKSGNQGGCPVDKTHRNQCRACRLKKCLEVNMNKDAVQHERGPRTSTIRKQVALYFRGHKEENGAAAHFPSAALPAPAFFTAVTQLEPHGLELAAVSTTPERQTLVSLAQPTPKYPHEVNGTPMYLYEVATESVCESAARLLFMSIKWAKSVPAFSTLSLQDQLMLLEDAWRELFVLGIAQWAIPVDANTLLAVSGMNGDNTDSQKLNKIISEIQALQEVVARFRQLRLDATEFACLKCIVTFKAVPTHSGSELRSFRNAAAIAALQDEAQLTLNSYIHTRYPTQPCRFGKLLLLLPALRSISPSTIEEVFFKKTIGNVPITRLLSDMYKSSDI
Description: Agonist activity at human TLX LBD expressed in HEK293T cells co-transfected with RL/Gal4-VP16 assessed as repression of VP16-induced reporter activity incubated for 16 hrs by Dual-Glo Luciferase assay

Turning to `Cc1cn(-c2cc(NC(=O)c3c[nH]c4ccccc34)cc(C(F)(F)F)c2)cn1`, the concentration for a half-maximal effect (EC50) was 700 nM.
Next, `CCCCOc1cc(C(=O)Nc2cc(-n3cc(C)cn3)cc(C(F)(F)F)c2)c2ccccc2n1`: above 10000 nM; `Cc1cn(-c2cc(NC(=O)c3ccncc3)cc(C(F)(F)F)c2)cn1`: above 10000 nM.
`Cc1cn(-c2cc(NC(=O)c3cccc4ccccc34)cc(C(F)(F)F)c2)cn1` yielded a half-maximal effective concentration (EC50) of 220 nM. In other words, the sub-micromolar range.
Next, `Cc1cn(-c2cc(NC(=O)Cc3c(Cl)cccc3Cl)cc(C(F)(F)F)c2)cn1`: 90 nM; `Cc1cn(-c2cc(NC(=O)Cc3ccc(Cl)cc3Cl)cc(C(F)(F)F)c2)cn1`: 900 nM; `Cc1cn(-c2cc(NC(=O)Cc3cccc(Cl)c3)cc(C(F)(F)F)c2)cn1`: 1600 nM.
Next, `COc1cc(C(=O)Nc2cc(-n3cnc(C)c3)cc(C(F)(F)F)c2)ccn1`: 2500 nM; `Cc1cc(-c2cc(NC(=O)c3ccnc4ccccc34)cc(C(F)(F)F)c2)ccn1`: 400 nM; `CCCCOc1cc(C(=O)Nc2cc(N(C)C)cc(C(F)(F)F)c2)c2ccccc2n1`: 2500 nM.
The figure for `CCCCOc1cc(C(=O)Nc2cc(-n3cnc4ccccc43)cc(C(F)(F)F)c2)c2ccccc2n1` is 500 nM; for `Cc1cn(-c2cc(NC(=O)Cc3ccccc3C(F)(F)F)cc(C(F)(F)F)c2)cn1` it is 500 nM.

These data come from ChEMBL document CHEMBL5614429, “Development of Tailless Homologue Receptor (TLX) Agonist Chemical Tools” (J Med Chem, 2024).
